Assay results published in patent US8969363B2, “Heterocyclic compounds and uses thereof” (Infinity Pharmaceuticals, Inc., priority 2011, dated 2015).

Legend:
PI3Kα = molecular target: T1, PI3Kα (Homo sapiens, UniProt P42336); assay: PI3 Kinase HTRF assay, PI3Kα; format: biochemical; conditions: 10 μM PIP2, 10 μM ATP; 'Greater than 10 μM' and 'Greater than 1 μM to 10 μM'; read-out: PI3K α IC50
T1 construct: purchased Millipore Corporation 14-602-K
Source text: (§1) A PI3-Kinase HTRF® assay kit (cat No. 33-016) purchased from Millipore Corporation was used to screen compounds provided herein. This assay used specific, high affinity binding of the GRP1 pleckstrin homology (PH) domain to PIP3, the product of a Class 1A or 1B PI3 Kinase acting on its physiological substrate PIP2. During the detection phase of the assay, a complex was generated between the GST-tagged PH domain and biotinylated short chain PIP3. The biotinylated PIP3 and the GST-tagged PH domain recruited fluorophores (Streptavidin-Allophycocyanin and Europium-labeled anti-GST respectively) to form the fluorescence resonance energy transfer (FRET) architecture, generating a stable time-resolved FRET signal. The FRET complex was disrupted in a competitive manner by non-biotinylated PIP3, a product formed in the PI3 Kinase assay.
(§2) PI3 Kinase α, β, γ and δ activity was assayed using the PI3 Kinase HTRF® assay kit (catalogue No. 33-016) purchased from Millipore Corporation. Purified recombinant PI3Kα (catalogue No. 14-602-K), PI3Kβ (catalogue No. 14-603-K), PI3Kγ (catalogue No. 14-558-K) and PI3Kδ (catalogue No. 14-604-K) were obtained from Millipore Corporation. Purified recombinant PI3K enzyme was used to catalyze the phosphorylation of phosphatidylinositol 4,5-bisphosphate (PIP2 at 10 μM) to phosphatidylinositol 3,4,5-trisphosphate (PIP3) in the presence of 10 μM ATP. The assay was carried out in 384-well format and detected using a Perkin Elmer EnVision Xcite Multilabel Reader. Emission ratios were converted into percent inhibitions and imported into GraphPad Prism software. The concentration necessary to achieve inhibition of enzyme activity by 50% (IC50) was calculated using concentrations ranging from 20 μM to 0.1 nM (12-point curve). IC50 values were determined using a nonlinear regression model available in GraphPad Prism 5. […]

PI3Kβ = assay: PI3 Kinase HTRF assay, PI3Kβ; format: biochemical, human; conditions: 10 μM PIP2, 10 μM ATP; 'Greater than 10 μM' and 'Greater than 1 μM to 10 μM'; read-out: PI3K β IC50
Source text: as §1
as §2, with “Purified recombinant PI3Kα (catalogue No. 14-602-K), PI3Kβ (catalogue No. 14-603-K), PI3Kγ (catalogue No. 14-558-K) and PI3Kδ (catalogue No. 14-604-K) were obtained from Millipore Corporation.” left out, “The concentration necessary to achieve inhibition of enzyme activity by 50% (IC50) was calculated using concentrations ranging from 20 μM to 0.1 nM (12-point curve).” left out

Balb/c splenic B cells = assay: B cell activation and proliferation assay (Alamar Blue); format: cell-based; conditions: Mus musculus
Description: The ability of one or more subject compounds to inhibit B cell activation and proliferation is determined according to standard procedures known in the art. For example, an in vitro cellular proliferation assay is established that measures the metabolic activity of live cells. The assay is performed in a 96 well microtiter plate using Alamar Blue reduction. Balb/c splenic B cells are purified over a Ficoll-Paque™ PLUS gradient followed by magnetic cell separation using a MACS B cell Isolation Kit (Miletenyi). Cells are plated in 90 μl at 50,000 cells/well in B Cell Media (RPMI+10% FBS+Penn/Strep+50 μM bME+5 mM HEPES). A compound provided herein is diluted in B Cell Media and added in a 10 μl volume. Plates are incubated for 30 min at 37° C. and 5% CO2 (0.2% DMSO final concentration). A 50 μl B cell stimulation cocktail is then added containing either 10 μg/ml LPS or 5 μg/ml F(ab′)2 Donkey anti-mouse […] plus 2 ng/ml recombinant mouse IL4 in B Cell Media. Plates are incubated for 72 hours at 37° C. and 5% CO2. A volume of 15 μL of Alamar Blue reagent is added to each well and plates are incubated for 5 hours at 37° C. and 5% CO2. Alamar Blue fluoresce is read at 560Ex/590Em, and IC50 or EC50 values are calculated using GraphPad Prism 5.

PI3Kγ = molecular target: T2, PI3Kγ (Homo sapiens, UniProt P48736); assay: PI3 Kinase HTRF assay, PI3Kγ; format: biochemical; conditions: 10 μM PIP2, 10 μM ATP; 'Greater than 10 μM' and 'Greater than 1 μM to 10 μM'; read-out: PI3K γ IC50
T2 construct: purchased Millipore Corporation 14-558-K
Source text: as §1, §2

Chain of PI3Kβ (Q8BTI9 whole entry): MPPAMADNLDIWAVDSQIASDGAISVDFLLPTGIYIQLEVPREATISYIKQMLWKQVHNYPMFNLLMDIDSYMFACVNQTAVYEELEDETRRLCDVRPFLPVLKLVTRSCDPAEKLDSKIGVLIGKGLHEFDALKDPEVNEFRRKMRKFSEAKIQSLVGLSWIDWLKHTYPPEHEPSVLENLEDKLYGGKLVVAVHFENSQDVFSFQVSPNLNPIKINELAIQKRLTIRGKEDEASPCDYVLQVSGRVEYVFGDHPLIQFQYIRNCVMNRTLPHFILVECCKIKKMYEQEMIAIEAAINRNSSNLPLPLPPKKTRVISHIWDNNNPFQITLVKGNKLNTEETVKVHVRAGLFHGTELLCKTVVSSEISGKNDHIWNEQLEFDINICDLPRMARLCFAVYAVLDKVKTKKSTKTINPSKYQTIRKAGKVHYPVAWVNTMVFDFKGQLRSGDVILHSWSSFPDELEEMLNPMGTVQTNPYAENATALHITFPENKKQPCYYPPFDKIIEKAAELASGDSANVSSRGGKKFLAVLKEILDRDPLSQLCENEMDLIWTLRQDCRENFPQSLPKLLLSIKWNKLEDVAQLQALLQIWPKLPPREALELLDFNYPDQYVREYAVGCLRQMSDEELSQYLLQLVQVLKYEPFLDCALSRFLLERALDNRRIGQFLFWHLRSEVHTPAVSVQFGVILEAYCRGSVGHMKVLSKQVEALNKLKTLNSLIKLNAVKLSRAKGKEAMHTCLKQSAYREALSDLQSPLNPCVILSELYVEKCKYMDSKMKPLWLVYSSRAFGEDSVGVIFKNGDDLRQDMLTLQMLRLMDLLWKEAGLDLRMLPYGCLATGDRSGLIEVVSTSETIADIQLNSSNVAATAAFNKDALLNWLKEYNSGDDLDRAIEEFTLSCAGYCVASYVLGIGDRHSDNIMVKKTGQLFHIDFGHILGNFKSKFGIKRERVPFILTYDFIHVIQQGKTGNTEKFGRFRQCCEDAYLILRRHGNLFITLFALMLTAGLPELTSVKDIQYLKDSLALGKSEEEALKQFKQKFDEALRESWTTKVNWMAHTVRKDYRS
T2 sequence (P48736 whole entry): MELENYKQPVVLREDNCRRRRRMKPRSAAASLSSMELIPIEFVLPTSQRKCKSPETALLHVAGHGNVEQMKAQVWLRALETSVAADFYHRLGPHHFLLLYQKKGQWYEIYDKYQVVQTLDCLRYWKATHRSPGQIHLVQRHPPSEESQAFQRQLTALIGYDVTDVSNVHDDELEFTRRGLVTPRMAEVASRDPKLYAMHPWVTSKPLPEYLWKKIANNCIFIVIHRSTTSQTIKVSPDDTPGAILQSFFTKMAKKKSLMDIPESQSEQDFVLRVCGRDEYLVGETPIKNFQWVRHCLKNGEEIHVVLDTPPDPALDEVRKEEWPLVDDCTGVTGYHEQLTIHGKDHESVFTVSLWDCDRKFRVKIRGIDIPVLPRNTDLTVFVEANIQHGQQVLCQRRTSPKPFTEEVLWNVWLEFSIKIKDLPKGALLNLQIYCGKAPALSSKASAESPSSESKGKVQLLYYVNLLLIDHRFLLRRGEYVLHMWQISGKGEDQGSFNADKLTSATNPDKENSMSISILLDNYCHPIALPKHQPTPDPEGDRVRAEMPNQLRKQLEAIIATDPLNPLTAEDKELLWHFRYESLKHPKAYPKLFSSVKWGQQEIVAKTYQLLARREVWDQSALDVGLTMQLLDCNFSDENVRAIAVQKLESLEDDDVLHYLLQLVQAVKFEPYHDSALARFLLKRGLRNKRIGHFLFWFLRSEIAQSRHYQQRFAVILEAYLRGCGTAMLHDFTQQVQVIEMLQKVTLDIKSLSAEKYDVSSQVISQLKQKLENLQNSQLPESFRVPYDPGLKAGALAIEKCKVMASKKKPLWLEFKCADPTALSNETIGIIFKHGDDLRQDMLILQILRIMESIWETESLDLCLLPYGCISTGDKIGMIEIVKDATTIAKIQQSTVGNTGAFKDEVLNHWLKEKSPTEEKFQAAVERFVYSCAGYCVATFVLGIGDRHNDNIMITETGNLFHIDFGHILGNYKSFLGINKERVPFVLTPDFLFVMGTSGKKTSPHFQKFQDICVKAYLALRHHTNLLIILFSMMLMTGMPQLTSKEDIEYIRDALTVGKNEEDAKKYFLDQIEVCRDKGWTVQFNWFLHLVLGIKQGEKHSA
T1 sequence (P42336 whole entry): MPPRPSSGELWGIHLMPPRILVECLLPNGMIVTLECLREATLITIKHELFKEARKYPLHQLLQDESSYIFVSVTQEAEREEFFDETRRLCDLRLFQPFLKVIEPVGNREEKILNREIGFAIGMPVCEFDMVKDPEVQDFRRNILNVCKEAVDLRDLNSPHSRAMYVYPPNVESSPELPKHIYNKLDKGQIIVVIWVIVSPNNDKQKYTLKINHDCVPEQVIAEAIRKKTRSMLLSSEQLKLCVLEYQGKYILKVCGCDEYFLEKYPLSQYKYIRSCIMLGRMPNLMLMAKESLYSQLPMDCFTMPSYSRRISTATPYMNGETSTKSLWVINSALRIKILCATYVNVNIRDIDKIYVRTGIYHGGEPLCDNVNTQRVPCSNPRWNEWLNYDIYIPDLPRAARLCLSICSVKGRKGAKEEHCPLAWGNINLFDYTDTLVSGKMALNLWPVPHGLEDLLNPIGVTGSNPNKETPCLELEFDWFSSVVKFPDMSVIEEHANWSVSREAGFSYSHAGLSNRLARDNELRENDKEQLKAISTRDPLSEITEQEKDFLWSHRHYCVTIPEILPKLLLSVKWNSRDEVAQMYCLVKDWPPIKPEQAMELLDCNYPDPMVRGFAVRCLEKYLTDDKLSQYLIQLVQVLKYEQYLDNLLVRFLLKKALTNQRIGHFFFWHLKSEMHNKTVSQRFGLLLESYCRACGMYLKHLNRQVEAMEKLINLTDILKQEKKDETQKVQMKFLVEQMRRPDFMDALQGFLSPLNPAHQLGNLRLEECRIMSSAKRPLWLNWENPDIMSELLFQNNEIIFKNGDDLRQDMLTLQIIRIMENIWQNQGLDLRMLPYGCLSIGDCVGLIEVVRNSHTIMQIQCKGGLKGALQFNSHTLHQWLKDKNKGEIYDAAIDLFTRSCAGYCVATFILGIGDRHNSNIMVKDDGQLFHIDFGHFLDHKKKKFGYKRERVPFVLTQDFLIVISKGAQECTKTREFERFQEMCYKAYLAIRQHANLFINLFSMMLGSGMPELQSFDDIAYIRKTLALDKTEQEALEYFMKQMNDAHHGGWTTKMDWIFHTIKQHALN
T1 sequence (P27986 whole entry partner): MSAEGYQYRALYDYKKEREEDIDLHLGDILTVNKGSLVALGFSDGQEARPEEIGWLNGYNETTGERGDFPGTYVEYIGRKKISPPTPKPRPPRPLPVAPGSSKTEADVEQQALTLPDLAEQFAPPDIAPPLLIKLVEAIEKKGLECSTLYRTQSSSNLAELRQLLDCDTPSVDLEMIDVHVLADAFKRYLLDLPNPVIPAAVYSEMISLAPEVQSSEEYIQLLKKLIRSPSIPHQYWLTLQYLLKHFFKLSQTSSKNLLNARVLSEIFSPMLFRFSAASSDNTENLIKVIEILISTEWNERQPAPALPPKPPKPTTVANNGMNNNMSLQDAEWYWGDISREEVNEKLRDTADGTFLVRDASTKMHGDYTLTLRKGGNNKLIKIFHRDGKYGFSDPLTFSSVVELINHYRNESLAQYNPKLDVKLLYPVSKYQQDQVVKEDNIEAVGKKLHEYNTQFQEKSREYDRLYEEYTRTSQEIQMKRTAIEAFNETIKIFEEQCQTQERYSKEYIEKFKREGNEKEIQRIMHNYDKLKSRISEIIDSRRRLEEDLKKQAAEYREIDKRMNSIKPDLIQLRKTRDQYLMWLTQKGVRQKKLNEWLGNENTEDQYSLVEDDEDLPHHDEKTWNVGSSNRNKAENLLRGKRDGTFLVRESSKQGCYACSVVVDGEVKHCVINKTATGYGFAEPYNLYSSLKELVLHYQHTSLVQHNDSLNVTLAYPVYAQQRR

Row | SMILES | IC50 (PI3Kα) [nM] | IC50 (PI3Kβ) [nM] | EC50 (Balb/c splenic B cells; 'Less than 100 nM') [nM] | IC50 (PI3Kγ) [nM] | EC50 (Balb/c splenic B cells; 1 μM to 100 nM) [nM]
1 | C[C@H](Nc1ncnc2cccnc12)c1cc2c(F)cccc2c(=O)n1-c1ccccc1 [Compound I-4] | 1000 to 10000 | 1000 to 10000 | < 100 | – | –
2 | Cc1ncc(-c2cccc3cc([C@H](C)Nc4nc(N)nc5cccnc45)n(-c4cccc(F)c4)c(=O)c23)cn1 [Compound I-84] | 1000 to 10000 | > 10000 | < 100 | – | –
3 | C[C@H](Nc1c(C#N)cnc2cccnc12)c1cc2cccc(-c3cnn(C)c3)c2c(=O)n1-c1ccccc1 [Compound I-55] | – | > 10000 | – | 1000 to 10000 | –
4 | C[C@H](Nc1ncnc2cccnc12)c1cc2scc(C(F)(F)F)c2c(=O)n1-c1ccccc1 [III-41] | – | > 10000 | < 100 | 1000 to 10000 | –
5 | C[C@H](Nc1ccnn2ccnc12)c1cc2cccc(-c3cnn(C)c3)c2c(=O)n1-c1ccccc1 [II-18] | 1000 to 10000 | 1000 to 10000 | < 100 | – | –
6 | C[C@H](Nc1ncnc2cccnc12)c1cc2cccc(-c3ccc(N)nc3)c2c(=O)n1-c1ccccc1 [Compound I-43] | 1000 to 10000 | > 10000 | < 100 | – | –
7 | C[C@H](Nc1ncnc(N)n1)c1cc2cccc(Cl)c2c(=O)n1-c1cccc(F)c1 [IV-2] | – | > 10000 | < 100 | 1000 to 10000 | –
8 | C[C@H](Nc1ncnc2cccnc12)c1cc2cccc(-c3cnn(C)c3)c2c(=O)n1-c1cccc(F)c1 [Compound I-25] | 1000 to 10000 | > 10000 | < 100 | – | –
9 | C[C@H](Nc1c(C#N)cnc2cccnc12)c1cc2cccc(Cl)c2c(=O)n1-c1cccc(F)c1 [Compound I-54] | – | > 10000 | – | 1000 to 10000 | –
10 | C[C@H](Nc1ccnn2ccnc12)c1cc2cccc(-c3cnn(C)c3)c2c(=O)n1C1CC1 [II-45] | 1000 to 10000 | 1000 to 10000 | < 100 | – | –
11 | C[C@H](Nc1ncnc2cccnc12)c1cc2cccc(-c3cnn(C)c3)c2c(=O)n1C1CC1 [Compound I-24] | 1000 to 10000 | 1000 to 10000 | < 100 | – | –
12 | C[C@H](Nc1ccnc2ccnn12)c1cc2cccc(-c3cnn(C)c3)c2c(=O)n1-c1ccccc1 [II-5, (S)-8-(1-methyl-1H-pyrazol-4-yl)-2-phenyl-3-(1-(pyrazolo[1,5-a]pyrimidin-7-ylamino)ethyl)isoquinolin-1(2H)-one] | 1000 to 10000 | 1000 to 10000 | < 100 | – | –
13 | C[C@H](Nc1cc(Cl)nn2ccnc12)c1cc2cccc(C(F)(F)F)c2c(=O)n1-c1cccc(F)c1 [III-14] | – | > 10000 | – | 1000 to 10000 | –
14 | COc1ncc(-c2cccc3cc([C@H](C)Nc4ncnc5cccnc45)n(-c4cccc(F)c4)c(=O)c23)cn1 [Compound I-73] | 1000 to 10000 | > 10000 | < 100 | – | –
15 | C[C@H](Nc1ncnc2ccnn12)c1cc2cccc(Cl)c2c(C(=O)N2CCOCC2)n1 [II-44] | > 10000 | 1000 to 10000 | – | 1000 to 10000 | –
16 | CNc1nc(N[C@@H](C)c2cc3cccc(Cl)c3c(=O)n2-c2ccccc2)c2ncccc2n1 [Compound I-96] | 1000 to 10000 | 1000 to 10000 | < 100 | – | –
17 | Cc1cn2nccc(N[C@@H](C)c3cc4cccc(C(F)(F)F)c4c(=O)n3-c3ccccc3)c2n1 [III-29] | – | > 10000 | – | 1000 to 10000 | –
18 | C[C@H](Nc1ncnc2[nH]cnc12)c1cc2scc(C(F)(F)F)c2c(=O)n1-c1ccccc1 [III-40] | – | – | – | 1000 to 10000 | –
19 | Cc1nsc2cc(C(C)Nc3ncnc4cccnc34)n(-c3ccccc3)c(=O)c12 (centres unmarked) [Compound I-27] | – | > 10000 | – | 1000 to 10000 | 100 to 1000

Row | SMILES | IC50 (PI3Kα) [nM] | IC50 (PI3Kβ) [nM] | EC50 (Balb/c splenic B cells; 'Less than 100 nM') [nM] | IC50 (PI3Kγ) [nM] | EC50 (Balb/c splenic B cells; 1 μM to 100 nM) [nM]
20 | C[C@H](Nc1nc(N)nc2cccnc12)c1cc2cccc(-c3ccnnc3)c2c(=O)n1-c1cccc(F)c1 [Compound I-80] | 1000 to 10000 | > 10000 | < 100 | – | –
21 | COc1nc(N[C@@H](C)c2cc3cccc(C(F)(F)F)c3c(=O)n2-c2cccc(F)c2)c2ncccc2n1 [III-43] | – | > 10000 | – | 1000 to 10000 | –
22 | Cc1cccc2cc([C@H](C)Nc3ncnc4cccnc34)n(-c3cccc(F)c3)c(=O)c12 [Compound I-70] | 1000 to 10000 | 1000 to 10000 | < 100 | – | –
23 | C[C@H](Nc1ccnn2ccnc12)c1cc2cccc(C(F)(F)F)c2c(=O)n1-c1cccc(F)c1 [III-15] | 1000 to 10000 | 1000 to 10000 | < 100 | – | –
24 | C[C@H](Nc1ccnc2ccnn12)c1cc2cccc(Cl)c2c(=O)n1-c1cccc(F)c1 [II-4] | 1000 to 10000 | 1000 to 10000 | < 100 | – | –
25 | C[C@H](Nc1ncnc2cccnc12)c1cc2ccc(F)cc2c(=O)n1-c1ccccc1 [Compound I-18] | 1000 to 10000 | 1000 to 10000 | < 100 | – | –
26 | C[C@H](Nc1ccnn2ccnc12)c1cc2cccc(-c3cnn(C)c3)c2c(=O)n1-c1cccc(F)c1 [II-17] | 1000 to 10000 | > 10000 | < 100 | – | –
27 | C[C@H](Nc1nc(N)nc2cccnc12)c1cc2cccc(-c3ccnnc3)c2c(=O)n1-c1ccccc1 [Compound I-79] | 1000 to 10000 | 1000 to 10000 | < 100 | – | –
28 | C[C@H](Nc1nc(N)nc2cccnc12)c1cc2cccc(-c3cncnc3)c2c(=O)n1-c1ccccc1 [Compound I-74] | 1000 to 10000 | 1000 to 10000 | < 100 | – | –
29 | C[C@H](Nc1ccnc2cccnc12)c1cc2cccc(Cl)c2c(=O)n1-c1cccc(F)c1 [Compound I-50] | 1000 to 10000 | 1000 to 10000 | < 100 | – | –
30 | C[C@H](Nc1ccnc2ccnn12)c1cc2cccc(-c3cnn(C)c3)c2c(=O)n1-c1cccc(F)c1 [II-9] | 1000 to 10000 | > 10000 | < 100 | – | –
31 | C[C@H](Nc1ccnc2ccnn12)c1cc2cccc(-c3cnn(C)c3)c2c(=O)n1C1CC1 [II-8] | 1000 to 10000 | 1000 to 10000 | – | 1000 to 10000 | –
32 | C[C@H](Nc1ncnc2cccnc12)c1cc2cccc(C(F)(F)F)c2c(=O)n1-c1cccc(F)c1 [III-12] | 1000 to 10000 | 1000 to 10000 | < 100 | – | –
33 | C[C@H](Nc1nc(N)nc2cccnc12)c1cc2cccc(-c3cnn(C)c3)c2c(=O)n1-c1cccc(F)c1 [Compound I-38] | 1000 to 10000 | > 10000 | < 100 | – | –
34 | C[C@H](Nc1c(C#N)cnc2cccnc12)c1cc2cccc(Cl)c2c(=O)n1-c1ccccc1 [Compound I-53] | – | > 10000 | – | 1000 to 10000 | –
35 | C[C@H](Nc1c(C#N)cnc2cccnc12)c1cc2cccc(C(F)(F)F)c2c(=O)n1-c1ccccc1 [III-37] | – | > 10000 | – | 1000 to 10000 | –
36 | COc1ccc(-c2cccc3cc([C@H](C)Nc4ncnc5cccnc45)n(-c4ccccc4)c(=O)c23)cn1 [Compound I-48] | 1000 to 10000 | > 10000 | < 100 | – | –
37 | Cc1nc2c(N[C@@H](C)c3cc4cccc(C(F)(F)F)c4c(=O)n3-c3ccccc3)ncnc2s1 [III-26] | – | > 10000 | – | 1000 to 10000 | –
38 | C[C@H](Nc1ccnc2cccnc12)c1cc2cccc(-c3cnn(C)c3)c2c(=O)n1-c1ccccc1 [Compound I-51] | 1000 to 10000 | 1000 to 10000 | < 100 | – | –
